Like-named read-outs stand apart in the source and are kept apart here.
Legend:
patients with RMS [1] = conditions: 75 mg q.d. while fasted; over 24 weeks, maintained through week 48; cited from earlier work
patients with RMS [2] = assay type: in vivo, human
patients with RMS [3] = conditions: cited from earlier work; for Annualized relapse rate (ARR): 75 mg b.i.d.
[4] = data not shown for high-fat or moderate-fat meal; internal report; cited from earlier work
[5] = Population PK model of evobrutinib; assay type: in vivo, human; conditions: for Increase of bioavailability with food compared with when fasted: population PK model covariate effect
[6] = between-participant variability, final PK model

Patients exceeding AUC0-24,SS > 400 ng/ml h ([5]; 75 mg b.i.d. treatment arm in the phase II study): all patients | ω^2 ALAG, Estimate (RSE %) [5, 6]: 0.317 (83.3) | ω^2 CL/F, Estimate (RSE %) [5, 6]: 0.257 (18.1) | ω^2 D1 fasted, Estimate (RSE %) [5, 6]: 0.784 (38.3) | ω^2 D1 fed, Estimate (RSE %) [5, 6]: 0.784 (38.3) | ω^2 Q/F, Estimate (RSE %) [5, 6]: 1.25 (18.2) | ω^2 V2/F, Estimate (RSE %) [5, 6]: 0.566 (32.9) | ω^2 V3/F, Estimate (RSE %) [5, 6]: 1.82 (15.2) | Cov CL/F + ALAG, Estimate (RSE %) ([5]; covariance, final PK model): 0.0572 (120) | Cov Q/F + V3/F, Estimate (RSE %) ([5]; covariance, final PK model): 1.09 (17.3) | Residual variability: Additive error ([5]; final PK model): 0.272 ng/mL | Residual variability: Proportional error ([5]; final PK model): 0.509 | ALAG (lag time) ([5]; final PK model, week 48): 0.197 h | K a (absorption rate constant) ([5]; final PK model, week 48): 0.793 h⁻¹ | V3/F (apparent volume of distribution of the peripheral compartment) ([5]; final PK model, week 48): 385 L | CL/F (apparent clearance) ([5]; final PK model, week 48, value for healthy participants): 269 L/h | Vd/F ([5]; human, in vivo): 50.8 L | AUC(0-t) ([5]; human, in vivo, 75 mg): 835 ng·h/mL | Cmax ([5]; human, in vivo, 75 mg): 168 ng/mL | Increase of bioavailability with food compared with when fasted [5]: about 50% | Increase of bioavailability with food compared with when fasted ([5]; listed as Evobrutinib): 49%
Structure (SMILES): C=CC(=O)N1CCC(CNc2ncnc(N)c2-c2ccc(Oc3ccccc3)cc2)CC1 [evobrutinib, Evobrutinib]
Total cumulative number of T1 Gd+ lesions compared with placebo (patients with RMS [1]): reduction | exp(B1), level of ARR for high values of the AUC (patients with RMS [2]; ARR versus exposure model estimate): 0.11 | Mean ARR (patients with RMS [2]; highest three exposure quintiles (starting at an AUC of 356 ng/ml h)): ≤ 0.14 | Clinical efficacy on any end points compared with placebo (patients with RMS [3]; 25 mg q.d.): did not show clinical efficacy | Annualized relapse rate (ARR) (patients with RMS [3]; 48-week double-blind period): 0.11 | Annualized relapse rate (ARR) (patients with RMS [3]; 108-week period (48-week double-blind plus 60-week open-label extension)): 0.12 | Increase of bioavailability by dosing with food [4]: about 50%

From PMC9747124 (Clinical and Translational Science, 2022)
